Assay results as given in patent US7208491B2, “N-monoacylated o-phenylenediamines” (Hoffmann-La Roche Inc., priority 2003, dated 2007).

Tested on: not given
Assay: not given
Details: not given

Compound	melting point
Nc1ccccc1NC(=O)c1cc2cc(OCCO)ccc2s1 [Example 16, 5-(2-Hydroxy-ethoxy)-benzo[b]thiophene-2-carboxylic acid (2-amino-phenyl)-amide]	215 to 216 °C

Tested on: histone deacetylase (HDAC)
Assay: cellular acetylation assay (acetylation of histones in PC3 cells, ELISA)
Type: cell-based
Details: PC3 human prostate carcinoma cells; compound 1 μM; 24 h incubation; ELISA with antibodies against acetylated histone H3 or H4
Procedure: Therein acetylation of histones is monitored in PC3 cells. High acetylation correlates with inhibition of histone deacetylase by compounds. Cell viability is monitored in parallel to estimate the cytotoxicity of compounds.
PC3 cells, a human prostate carcinoma cell line, are seeded as 1800 cells per well of a 384-well microtiterplate in RPMI 1640 (including 5% FCS, 2 mM glutamine and pen/strep).
After 48 h at 37° C. pre-diluted compounds are added to a final concentration of 1 uM. Compounds are pre-diluted in dimethyl sulfoxide (DMSO) resulting in a final concentration of DMSO of 0.5% per well.
After 24 h incubation cell viability is determined by adding cell proliferation reagent WST-1 (Roche Molecular Biochemicals). Another 60 min later the optical density (OD) is measured (450 nm versus 690 nm).
After measurement the cell layer is prepared for the ELISA reaction. Medium is aspirated and cells are fixed in ethanol at −20° C. for 60 min. After washing with PBS/Tween the blocking solution (PBS/5% FCS/Tween) is added and the cell layer is washed again. Antibodies against acetylated histone H3 or H4 (rabbit polyklonal IgG, Upstate Biotechnologie) are added at a dilution of 1:200 for 60 min at 37° C. As a second antibody goat anti rabbit IgG (H+L) humanIgG adsorbed-HRP conjugate (Dako) is used (1:2000 diluted). Cells are washed 3 times and the peroxidase substrate ABTS is allowed to react for 30–60 min at 37° C. The OD is measured at 405 nm.
The percentage of acetylation is calculated after substraction of blank O.D.s: […]

Compound	cell acetylation (PC3, 1 μM) [% of control]
Nc1ccccc1NC(=O)c1cc2cc(OCCO)ccc2s1 [Example 16, 5-(2-Hydroxy-ethoxy)-benzo[b]thiophene-2-carboxylic acid (2-amino-phenyl)-amide]	156 % of control
Nc1ccccc1NC(=O)c1cc2cc(CCO)ccc2o1 [Example 24, 5-(2-Hydroxy-ethyl)-benzofuran-2-carboxylic acid (2-amino-phenyl)-amide]	157 % of control
CC(C)N(CCOc1ccc2sc(C(=O)Nc3ccccc3N)cc2c1)C(C)C [Example 3, 5-(2-Diisopropylamino-ethoxy)-benzo[b]thiophene-2-carboxylic acid (2-amino-phenyl)-amide]	172 % of control
CC(=O)Nc1ccc(C(=O)Nc2ccccc2N)cc1 [4-acetylamino-N-(2-amino-phenyl)-benzamide, reference compound]	152 % of control
CN(C)CCCOc1ccc2sc(C(=O)Nc3ccccc3N)cc2c1 [Example 2, 5-(3-Dimethylamino-propoxy)-benzo[b]thiophene-2-carboxylic acid (2-amino-phenyl)-amide]	209 % of control
